In experiment [1] the test system is zymosan-stimulated NO production by RAW 264.7 cells. Description: Zymosan-stimulated NO production by RAW 264.7 cells. It is filed as cell-based, mouse. The protocol:
(§1) An additional LPS neutralization screening assay for BPI functional domain peptides was developed using an assay for NO production in mouse cells treated with LPS (see Lorsbach et al., 1993, J. Biol. Chem. 268: 1908-1913). In this assay, mouse RAW 264.7 cells (ATCC Accession No. TIB71) were treated with bacterial LPS. The cells were incubated in 96-well plates and stimulated for 2 hours with E. coli 0113 LPS or zymosan, in the presence or absence of _-interferon, rLBP, fetal bovine serum (FBS) or normal human serum (NHS), or rBPI21Δcys. After this incubation, the cells were washed with fresh media and incubated overnight in media containing 10% FCS. The NO released from the cells accumulated in the media and spontaneously converted to nitrite. This nitrite was assayed in situ by the Griess reaction, as follows. The nitrite was reacted with the primary amine of an added sulfanilamide and formed a diazonium salt. This salt was then reacted with added naphthylethylenediamine to form a red azo-dyc. The Griess reaction was performed at room temperature in about 10 minutes. The amount of produced NO was estimated from a standard curve of Griess reaction products determined spectrophotometrically as Absorbance at a wavelength of 550 nm.

The subject of experiment [2] is LPS-stimulated TNF production in THP-1 cells. Description: LPS neutralization by TNF cellular toxicity assay (THP-1 / L929 cells). The following applies: 5 ng/mL LPS. It is filed as cell-based, human. An excerpt:
A screening assay for LPS neutralization was developed using a tumor necrosis factor (TNF) cellular toxicity assay. A human monocytic cell line (THP-1; accession number TIB202, American Type Culture Collection, Rockville, Md.) grown in media supplemented with Vitamin D produce TNF upon stimulation with LPS in a dose-dependent fashion. Mouse fibroblasts (L929 cells; ATCC No.: CCL1) are sensitive to TNF-mediated cell killing, and this cell killing is also dose-dependent. Thus, the extent of cell killing of L929 cells provides a sensitive assay for the degree of TNF induction in THP-1 cells, which in turn is a sensitive indicator of the amount of free LPS in contact with the THP-1 cells. LPS binding and neutralization by BPI functional domain peptides or rBPI23 reduces the amount of free LPS in contact with THP-1 cells, which reduces the amount of TNF produced, which in turn reduces the amount of L929 cell killing in a standardized assay. Thus, the following assay provides a sensitive method for assessing the LPS binding and neutralization capacity of the BPI functional domain peptides of this invention.
THP-1 cells were grown in RPMI media (GIBCO, Long Island, N.Y.) supplemented with 10% FCS and Vitamin D in spinner culture for 3 days to a density of about 150,000 cells/mL. Cells were then plated in a round-bottomed 96-well culture plate at a density of 100,000 cells/well and incubated in RPMI media without Vitamin D or FCS in the presence of 5 ng/mL E. coli 01113 LPS for 6 hr at 37° C. Experimental control wells also contained varying amounts of rBPI23 or BPI functional domain peptides, in concentrations varying from about 0.1 μg/mL to about 100 μg/mL. After this incubation, the plates were centrifuged at about 600×g to pellet the cells, and 50 μL of the supernatant were added to a 96-well flat bottomed culture dish prepared in parallel with 50,000 L929 cells per well in 50 μL RPMI/10% FCS.
L929 cells were prepared by monolayer growth in RPMI/10% FCS media to a density of about 1 million cells per dish, then split 1:2 on the day before the experiment and allowed to grow overnight to about 70% confluence on the day of the experiment. Actinomycin D was added to the 70% confluent culture to a final concentration of 1 μg/mL 20 min prior to plating in 96-well plates. L929 cell plates were incubated in the presence of the THP-1 supernatant for about 16 hr (overnight) at 37° C. under standard conditions of mammalian cell growth. To each well was then added […] of a solution prepared by diluting 100 μL of phenazine methylsulfonate in 2 mL CellTitre 96™ AQueous solution (Promega, Madison, Wis.), containing 3-[(4,5-dimethyl)-thiozol-2-yl]-5-(3-carboxymethoxyphenyl)-2-(4-sulfonyl)-2H-tetrazolium (inner salt). The cultures were allowed to incubate for 2-4 hr at 37° C. and then analyzed spectrophotometrically to determine the optical absorbance at 490 nm (A490). Experimental results were evaluated relative to a semilog standard curve prepared with known amounts of TNF, varying from about 10 ng/mL to about […].

The next experiment relates to E. coli strain 07-K1. Description: Radial diffusion bactericidal assay, E. coli 07-K1. It is filed as cell-based. The conditions noted are these: FIG. 10c. The protocol:
BPI proteolytic fragments produced according to Example 1 were screened for bactericidal effects using rough mutant E. coli J5 bacteria in a radial diffusion assay. Specifically, an overnight culture of E. coli J5 was diluted 1:50 into fresh tryptic soy broth and incubated for 3 hours at 37° C. to attain log phase growth of the culture. Bacteria were then pelleted at 3,000 rpm for 5 minutes in a Sorvall RT6000B centrifuge (Sorvall Instruments, Newton, Conn.). 5 mL of 10 mM sodium phosphate buffer (pH 7.4) was added and the preparation was re-pelleted. […] The bacteria were diluted to 4×10^6 CFU/mL in 10 mL of molten underlayer agarose (at approximately 45° C.) and inverted repeatedly to mix in 15 mL polypropylene tubes conventionally used for this purpose.
The entire contents of such tubes were then poured into a level square petri dish and distributed evenly by rocking the dish side-to-side. […] A series of wells were then punched into the hardened agarose using a sterile 3 mm punch attached to a vacuum apparatus. The punch was sterilized with 100% alcohol and allowed to air dry prior to use to avoid contaminating the bacterial culture.
5 or 10 μL of each of the BPI fragments were carefully pipetted into each well. As a negative control, dilution buffer (pH 8.3) was added to a separate well, and rBPI23 at concentrations of 5 μg/mL and 1 μg/mL were also added as positive controls. Each plate was incubated at 37° C. for 3 hours, and then 10 mL of molten overlayer agarose (at approximately 45° C.) was added into the level petri dish, allowed to harden and incubated overnight at 37° C. […] The bacterial zones were measured with a micrometer.
Additional experiments were performed using various other bacteria as target cells to examine the range of bactericidal killing of these BPI functional domain peptides.

A further experiment concerns C. albicans. Description: Radial diffusion fungicidal assay, Candida albicans. It is filed as cell-based. The following applies: radial diffusion.
Experiment [3] deals with LPS-stimulated NO production by RAW 264.7 cells. Description: LPS-stimulated NO production by RAW 264.7 cells. It is filed as cell-based, mouse. The following applies: for IC50 NO assay: LPS-stimulated NO production by RAW 264.7 cells. The protocol:
as §1

Ends that are not written are not given here. Some results are limits rather than exact numbers.

On to IKISGKWKAQKRFLK [BPI.2], for which, in experiment [1], the “inhibition of zymosan-stimulated NO production (in words)” value is “not inhibited”.

As to “KSKVGWLIQLFHKK-NH2 (C-terminus assumed) [BPI.13]”, in experiment [2], the “IC50 (LPS-stimulated TNF production, L929 cell killing)” value was found to be 20 µg/mL. In the experiment with E. coli strain 07-K1, the “bactericidal activity (in words)” value is “low levels of bactericidal activity”. Besides, in the experiment with C. albicans, the “C. albicans: pmol required for 30 mm^2 zone” value (from here on “C. albicans: pmol required”) was 221.63 pmol. Moreover, in experiment [3], the “inhibition of LPS-stimulated NO production (in words)” value was “detectable levels of LPS neutralization” and the “IC50 NO assay” value worked out at 16 µg/mL.

Regarding “KSKVGWLIQLFHKKKSKVGWLIQLFHKK-NH2 (C-terminus assumed) [BPI.29]”, in experiment [2], the “IC50 (LPS-stimulated TNF production, L929 cell killing)” value lay in the range of 2 to 3 µg/mL. Moreover, the “bactericidal activity (in words)” value in the experiment on E. coli strain 07-K1 was “moderate bactericidal activity”. In addition, the “C. albicans: pmol required” value in the experiment with C. albicans is given as above 1469.25 pmol. In experiment [3], the “inhibition of LPS-stimulated NO production (in words)” value is on record as “detectable levels of LPS neutralization” and the “IC50 NO assay” value is 2.4 µg/mL.

For the substance KWKAAARFLKKWKAAARFLK [BPI.48], in experiment [2], the “IC50 (LPS-stimulated TNF production, L929 cell killing)” value came to 1 µg/mL.

“KWKAQKRFLKKSKVGWLIQLFHKK-NH2 (C-terminus assumed) [BPI.30]”: in experiment [2], the “IC50 (LPS-stimulated TNF production, L929 cell killing)” value is 6 to 7 µg/mL. Further, the “bactericidal activity (in words)” value in the experiment on E. coli strain 07-K1 is given as “high levels of bactericidal activity”. Moreover, in experiment [1], the “inhibition of zymosan-stimulated NO production (in words)” value is on record as “inhibited by BPI.30 at high (—100 μg/mL) concentrations”. Further, the “C. albicans: pmol required” value in the experiment with C. albicans is reported as above 1653.50 pmol. Further, the “inhibition of LPS-stimulated NO production (in words)” value in experiment [3] was “detectable levels of LPS neutralization”.

For “KWKAQKRFLKKWKAQKRFLK-NH2 (C-terminus assumed) [BPI.7]”, the “IC50 (LPS-stimulated TNF production, L929 cell killing)” value in experiment [2] came out at 30 µg/mL. Moreover, the “bactericidal activity (in words)” value with E. coli strain 07-K1 was “high levels of bactericidal activity”. Further, in experiment [1], the “inhibition of zymosan-stimulated NO production (in words)” value was “small amount of inhibition by BPI.7 at high concentrations”. For the same substance, in experiment [3], the “IC50 NO assay” value was “Not Inhibitory”.

As for NVGLKFSISNANIKISGKWKAQKRFLK [BPI.3], in experiment [1], the “inhibition of zymosan-stimulated NO production (in words)” value was “not inhibited”. Besides, in experiment [3], the “inhibition of LPS-stimulated NO production (in words)” value was “detectable levels of LPS neutralization”.

For the origin of these results see patent publication US20040023884A1, “Biologically active peptides from functional domains of bactericidal/permeability-increasing protein and uses thereof” (priority 1993, published 2004).
